Reference: patent publication US20120308590A1, “IMP-3 OLIGOPEPTIDES AND VACCINES INCLUDING THE SAME” (OncoTherapy Science, Inc., priority 2009, published 2012)
Residues, ends and D or L forms follow the SMILES beside them.

How the values were obtained:
Assay type in all cases: cell-based, human
[1] = test system: T2 cells pulsed with cognate peptides; assay: 51Cr release assay of peptide-induced CTLs against peptide-pulsed T2 cells
Method: (§1) The DCs were pulsed with 20 micro-g/mL of the candidate peptides in the presence of 4 micro-g/mL beta2-microglobulin (Sigma-Aldrich, St. Louis, Mo., USA) for 2 hours at 37 degrees C. in AIM-V (Invitrogen Japan, Tokyo, Japan) containing 2% heat-inactivated autologous plasma. The cells were then irradiated (40 Gy) and incubated with the CD8^+ T cells. […] After 2 days, these cultures were supplemented with human recombinant IL-2 (PeproTech, Rocky Hill, N.J., USA) to a final concentration of 20 IU/mL. Two additional weekly stimulations with peptide-loaded autologous DCs, using the same procedure, were carried out on days 7 and 14. Six days after the last stimulation, the antigen-specific responses of the induced CTLs were investigated by IFN-gamma ELISPOT assay and ^51Cr release assay. […] For ^51Cr release assay, CTLs were co-cultured with peptide-pulsed T2 cells or cancer cells as a target cells (5×10^3/well) at the indicated effector/target ratio and a standard ^51Cr release assay was done as described previously (Komori H et al., Clin Cancer Res. 2006 May 1; 12 (9):2689-97).

A549 (IMP-3+, HLA-A2-) = assay: 51Cr release assay of peptide-induced CTLs against cancer cell line; details: for cytotoxicity: CTLs from lung cancer patient 14 (SEQ ID NOs: 3 and 5) and patient 4 (SEQ ID NO: 6) (FIG. 5B)
Method: as §1, with “The expression of IMP-3 was determined by reverse transcription-polymerase chain reaction analysis. […] The DCs” for “The DCs”

MCF7 (IMP-3-, HLA-A2+) = assay: as above
Method: as §1, with “The expression of IMP-3 was determined by reverse transcription-polymerase chain reaction analysis. […] The DCs” for “The DCs”

PANC-1 (IMP-3+, HLA-A2+) = assay: as above
Method: as §1, with “The expression of IMP-3 was determined by reverse transcription-polymerase chain reaction analysis. […] The DCs” for “The DCs”

SKHep1 = assay: as above; details: CTL lines generated from the healthy donors (FIG. 5D)
Method: as §1, with “The expression of IMP-3 was determined by reverse transcription-polymerase chain reaction analysis. […] The DCs” for “The DCs”

SW620 = assay: as above; details: CTL lines generated from the healthy donors (FIG. 5D)
Method: as §1, with “The expression of IMP-3 was determined by reverse transcription-polymerase chain reaction analysis. […] The DCs” for “The DCs”

[2] = test system: MCF7/IMP-3 (MCF7 cells transfected with IMP-3 gene); assay: 51Cr release assay of peptide-induced CTLs against transfected cell line; details: CTL lines generated from the healthy donors (FIG. 5C)
Method: as §1, with “The expression of IMP-3 was determined by reverse transcription-polymerase chain reaction analysis. […] The DCs” for “The DCs”

[3] = test system: CD107a on the cell surface of CTLs; assay: CD107a exposure on the cell surface of CTLs (FACS); details: CTLs specific to IMP-3-552-560 stimulated with the named peptide at 1 microgram/ml for 5 hours; mouse IgG staining 0.7%
Method: The exposure of CD107a on the cell surface of the CTLs after antigen stimulation was detected by anti-CD107a antibody. […] These CTLs were cultured for 5 hours at 37 degrees C. and were subsequently stained with PE conjugated anti-human CD8 mAb. All peptides were used at a final concentration of 1 microgram/ml. Events shown are gated for CD8^+ T cells.

[4] = CTLs induced from PBMCs of healthy donors, not to T2 pulsed with irrelevant HIV-A2 peptide (FIG. 3B)
[5] = CTL lines generated from the healthy donors (FIG. 5D)
[6] = CTLs induced from PBMCs of healthy donor 2 (FIG. 5A)
[7] = CTL lines generated from the healthy donors (FIG. 5C)
[8] = CTLs from lung cancer patient 14 (SEQ ID NOs: 3 and 5) and patient 4 (SEQ ID NO: 6) (FIG. 5B)

Row | Molecule | cytotoxic activity [1, 4] | cytotoxic activity (A549 (IMP-3+, HLA-A2-); [5]) | cytotoxic activity (A549 (IMP-3+, HLA-A2-); [6]) | cytotoxicity (MCF7 (IMP-3-, HLA-A2+); [7]) | cytotoxic activity (MCF7 (IMP-3-, HLA-A2+); [5]) | cytotoxic activity (MCF7 (IMP-3-, HLA-A2+); [6]) | cytotoxic activity (PANC-1 (IMP-3+, HLA-A2+); [6]) | cytotoxic activity (SKHep1) | cytotoxic activity (SW620) | cytotoxicity [2] | cytotoxic activity ([1]; CTLs from PBMCs of lung cancer patient 4, no activity to T2 pulsed with HIV peptide (FIG. 4B)) | cytotoxicity (A549 (IMP-3+, HLA-A2-)) | cytotoxicity (MCF7 (IMP-3-, HLA-A2+); [8]) | cytotoxic activity (PANC-1 (IMP-3+, HLA-A2+); [8]) | cytotoxic activity ([1]; CTLs from PBMCs of lung cancer patient 3, no activity to T2 pulsed with HIV peptide (FIG. 4B)) | CD8+/CD107a+ cells of all CD8+ cells [3] [%]
1 | CC(C)C[C@H](NC(=O)[C@H](CC(C)C)NC(=O)[C@@H](N)CCCNC(=N)N)C(=O)N[C@H](C(=O)N1CCC[C@H]1C(=O)N[C@H](C(=O)N[C@@H](CCC(N)=O)C(=O)N[C@@H](Cc1ccccc1)C(=O)N[C@H](C(=O)O)C(C)C)[C@@H](C)O)C(C)C [SEQ ID NO: 1, RLLVPTQFV] (H-RLLVPTQFV-OH) | exhibited cytotoxic activity | not against | no cytotoxic activity | not against | not against | no cytotoxic activity | showed cytotoxic activity | exhibited cytotoxic activity | exhibited cytotoxic activity | exhibited cytotoxicity | – | – | – | – | – | –
2 | CC[C@H](C)[C@H](NC(=O)[C@H](CCC(=O)O)NC(=O)[C@H](CCC(N)=O)NC(=O)[C@@H](NC(=O)[C@@H](N)CCCCN)[C@@H](C)CC)C(=O)N[C@@H](CC(C)C)C(=O)N[C@H](C(=O)N[C@@H](CCC(N)=O)C(=O)N[C@H](C(=O)O)C(C)C)[C@@H](C)O [SEQ ID NO: 3, KIQEILTQV] (H-KIQEILTQV-OH) | – | – | no cytotoxic activity | – | – | no cytotoxic activity | showed cytotoxic activity | – | – | – | showed cytotoxic activity | without showing cytotoxicity | without showing cytotoxicity | showed cytotoxic activity | – | –
3 | CC[C@H](C)[C@H](NC(=O)[C@@H](N)CCCCN)C(=O)N1CCC[C@H]1C(=O)N[C@H](C(=O)N[C@@H](CO)C(=O)NCC(=O)N1CCC[C@H]1C(=O)N[C@@H](Cc1ccccc1)C(=O)N[C@@H](CC(C)C)C(=O)O)C(C)C [SEQ ID NO: 5, KIPVSGPFL] (H-KIPVSGPFL-OH) | – | – | no cytotoxic activity | – | – | no cytotoxic activity | showed cytotoxic activity | – | – | – | – | without showing cytotoxicity | without showing cytotoxicity | showed cytotoxic activity | showed cytotoxic activity | –
4 | CC(C)C[C@H](NC(=O)[C@@H](N)CC(N)=O)C(=O)N[C@@H](CO)C(=O)N[C@@H](CO)C(=O)N[C@@H](C)C(=O)N[C@@H](CCC(=O)O)C(=O)N[C@H](C(=O)N[C@H](C(=O)N[C@H](C(=O)O)C(C)C)C(C)C)C(C)C [SEQ ID NO: 6, NLSSAEVVV] (H-NLSSAEVVV-OH) | exhibited cytotoxic activity | not against | no cytotoxic activity | not against | not against | no cytotoxic activity | showed cytotoxic activity | exhibited cytotoxic activity | exhibited cytotoxic activity | exhibited cytotoxicity | – | without showing cytotoxicity | without showing cytotoxicity | showed cytotoxic activity | – | –
5 | SLYNTYATL [HIV peptide] | – | – | – | – | – | – | – | – | – | – | – | – | – | – | – | 1.5
